Literature values in patent US7329659B2, “Substituted-1-phthalazinamines as vr-1 antagonists” (Merck Sharp & Dohme Limited, priority 2003, dated 2008).

Biological target: VR1 (Rattus norvegicus, UniProt O35433)
Settings: Wahl et al., Mol. Pharmacol., 59:9, 2001

VR1, sequence (O35433 whole entry): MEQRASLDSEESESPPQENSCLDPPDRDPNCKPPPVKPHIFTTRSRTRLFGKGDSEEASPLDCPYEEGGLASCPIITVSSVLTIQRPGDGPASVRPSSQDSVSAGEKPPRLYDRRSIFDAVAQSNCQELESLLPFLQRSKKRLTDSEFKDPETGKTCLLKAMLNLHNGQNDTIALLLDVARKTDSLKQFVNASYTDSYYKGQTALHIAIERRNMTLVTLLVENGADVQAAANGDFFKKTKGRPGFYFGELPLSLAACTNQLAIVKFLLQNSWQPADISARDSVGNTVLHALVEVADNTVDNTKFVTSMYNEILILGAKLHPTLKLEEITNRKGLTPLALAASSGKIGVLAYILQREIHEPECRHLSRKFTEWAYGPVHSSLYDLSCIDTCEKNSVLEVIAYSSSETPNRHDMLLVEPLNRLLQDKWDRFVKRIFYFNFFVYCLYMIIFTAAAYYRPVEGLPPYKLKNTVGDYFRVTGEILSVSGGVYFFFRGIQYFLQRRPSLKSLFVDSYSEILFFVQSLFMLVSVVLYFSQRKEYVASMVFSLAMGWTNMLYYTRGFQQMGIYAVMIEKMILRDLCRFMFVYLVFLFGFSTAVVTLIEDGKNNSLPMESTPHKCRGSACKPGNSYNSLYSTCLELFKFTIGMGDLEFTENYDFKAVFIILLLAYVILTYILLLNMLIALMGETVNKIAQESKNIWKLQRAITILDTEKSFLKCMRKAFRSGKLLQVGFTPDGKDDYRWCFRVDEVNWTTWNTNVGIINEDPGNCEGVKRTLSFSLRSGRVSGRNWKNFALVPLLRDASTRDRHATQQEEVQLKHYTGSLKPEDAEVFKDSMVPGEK

C=C(C)[C@]12C[C@@H](C)[C@@]34O[C@](Cc5ccccc5)(O[C@@H]1[C@@H]3C=C(COC(=O)Cc1cc(I)c(O)c(OC)c1)C[C@]1(O)C(=O)C(C)=C[C@@H]41)O2 [Iodo-resiniferatoxin]
VR1 antagonist potency (in words): nanomolar antagonist of VR1
